Test results from ChEMBL document CHEMBL4402569.
Calls of active or inactive are those of the source. No cut-off for these calls is given here.

How the values were obtained:
H5N1 subtype [1] = experiment: Antiviral activity against pseudotyped Influenza A virus H5N1 (Goose/Qinghai/59/05) infected in human A549 cells assessed as inhibition of viral replication at 12.5 uM incubated for 48 hrs by luciferase reporter gene assay relative to control; type: functional; details: Goose/Qinghai/59/05, A549, 48 h
H5N1 subtype [2] = experiment: Antiviral activity against pseudotyped Influenza A virus H5N1 (Goose/Qinghai/59/05) infected in human A549 cells assessed as inhibition of viral replication at incubated for 48 hrs by luciferase reporter gene assay; type: functional, organism-based; details: Goose/Qinghai/59/05, A549, 48 h
Influenza A virus [3] = experiment: Antiviral activity against Influenza A virus (A/Puerto Rico/8/1934(H1N1)) infected in MDCK cells incubated for 1 hr and measured after 36 hrs by PR8-PB2 Gaussia luciferase reporter gene assay; type: functional, organism-based
Influenza A virus [4] = experiment: Antiviral activity against Influenza A virus (A/Puerto Rico/8/1934(H1N1)) infected in human A549 cells assessed as decrease in viral titer at 1 uM by standard plaque assay; type: functional, organism-based
H5N1 subtype [5] = experiment: Antiviral activity against Influenza A virus (A/Viet Nam/1203/2004(H5N1)) infected in human A549 cells assessed as decrease in viral titer at 1 uM by standard plaque assay; type: functional, organism-based
H5N1 subtype [6] = experiment: Antiviral activity against Influenza A virus (A/Viet Nam/1203/2004(H5N1)) infected in human A549 cells assessed as decrease in viral titer at 20 uM by standard plaque assay; type: functional

SMILES	inhibition at 12.5 µM (H5N1 subtype [1]) [%]	further results
CO[C@H]1CN(C(C)C)CC[C@H]1NC(=O)c1c(Cl)cccc1Cl	64	
CC(C)N1CCC(NC(=O)c2ncc(C(F)(F)F)cc2Cl)CC1	76	
CC(C)N1CC[C@H](NC(=O)c2ccc(C(F)(F)F)cc2Cl)[C@@H](F)C1	93	EC50 (H5N1 subtype [2]): 1160 nM; EC50 (Influenza A virus [3]): 324 nM
CC(C)N1CCC(NC(=O)c2c(Cl)cccc2Cl)C1 (stereo unspecified)	11	
CC(C)CN1CCC(NC(=O)c2ccc(C(F)(F)F)cc2Cl)CC1	73	
O=C(NC1CCN(C2CCC2)CC1)c1c(Cl)cccc1Cl	76	
CC(C)(C)N1CCC(NC(=O)c2c(Cl)cccc2Cl)CC1	99	EC50 (H5N1 subtype [2]): 510 nM; EC50 (Influenza A virus [3]): 113 nM; inhibition (Influenza A virus [4]): Active; inhibition (H5N1 subtype [5]): Active; inhibition at 20 µM (H5N1 subtype [6]): 100%
CC(C)N1CCN(C(=O)c2c(Cl)cccc2Cl)CC1	4	
CC(C)N1CCC(N(Cc2ccccc2)C(=O)c2c(Cl)cccc2Cl)CC1	64	
CC(C)N1CCC2(CC1)OCCN2C(=O)c1c(Cl)cccc1Cl	19	
CC(C)N1CCC(NC(=O)c2ccc([N+](=O)[O-])cc2Cl)CC1	97	EC50 (H5N1 subtype [2]): 720 nM; EC50 (Influenza A virus [3]): 211 nM
O=C(NC1CCN(C2CC2)CC1)c1c(Cl)cccc1Cl	33	
CC(C)N1CCC(NC(=O)c2ncc(Cl)cc2Cl)CC1	39	
CC(C)N1CCC(NC(=O)c2c(Cl)cccc2Cl)CC1	90	EC50 (H5N1 subtype [2]): 3040 nM; EC50 (Influenza A virus [3]): 272 nM; inhibition (Influenza A virus [4]): Active; inhibition (H5N1 subtype [5]): Active; inhibition at 20 µM (H5N1 subtype [6]): 100%
CC(C)N1CCC(NC(=O)c2c(Cl)cccc2Cl)C(F)(F)C1 (racemic)	77	
CC(C)N1CCC(C)(NC(=O)c2c(Cl)cccc2Cl)CC1	75	
CC(C)N1CCCC(NC(=O)c2c(Cl)cccc2Cl)CC1 (stereo unspecified)	71	
